This note sets out measurements from patent US12139458B2, “(2,5-dioxopyrrolidin-1-yl)(phenyl)-acetamide derivatives and their use in the treatment of neurological diseases” (UNIWERSYTET JAGIELLONSKI, priority 2019, dated 2024).

Series [1] relates to male Swiss albino mice (CD-1). The series is described as follows: Psychomotor seizure test 6 Hz (32 mA). It is filed as in vivo. Put shortly:
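Compounds given i.p. in 1% aqueous Tween 30 min before a 3 s ocular stimulus (32 mA and/or 44 mA, 6 pulses/s) after lidocaine; mice normal within 10 s counted protected. ED50 from 3-4 groups of 6 mice; screening on groups of 4.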

The subject of another series is HepG2 cells. The series is described as follows: ATP level, CellTiter-Glo Luminescent Cell Viability Assay. Conditions: 1-100 μM, 3 h exposure. Format: cell-based. How it is done:
In vitro hepatotoxicity assessment. The studies were conducted using the hepatoma HepG2 liver cancer cell line, which is used to assess the hepatotoxicity of the substance in vitro. A classic MTS colorimetric assay from Promega (Madison, WI, USA) was used to investigate the effect of 6 on HepG2 cell viability and proliferation. The compound was tested at four concentrations in the range (0.1-100 μM). Doxorubicin at a concentration of 1 μM was used as a reference cytostatic. In addition, the reference mitochondrial toxin carbonyl cyanide m-chlorophenylhydrazone (CCCP) at a concentration of 10 μM was also used (FIG. 10). […] In addition, cell viability was reduced to just 84% of the control, indicating a trace toxic effect of this compound on HepG2 cell lines. […]
CellTiter-Glo Luminescent Cell Viability Assay from Promega (Madison, WI, USA) was used to study ATP levels in HepG2 cells. Prior to testing, the cells were plated into white, 96-well transparent bottom culture plates from Corning (Tewksbury, MA, USA), adapted for luminescence measurement at a concentration of 1.5×10^4 cells per well. […] Luminescence measurement was carried out with an EnSpire PerkinElmer (Waltham, MA, USA) reader after adding CellTiter-Glo Luminescent Cell Viability Assay in an amount of 100 μl to the culture. Statistical significance was calculated by one-way ANOVA and Bonferroni analysis using GraphPad Prism 5. […]

Turning to `O=C(C(c1ccccc1)N1C(=O)CCC1=O)N1CCN(c2cccc(C(F)(F)F)c2)CC1` (racemic) [Compound 6, 1-(2-Oxo-1-phenyl-2-(4-(3-(trifluoromethyl)phenyl)piperazin-1-yl)ethyl)pyrrolidine-2,5-dione], the ED50 in series [1] (Mus musculus, ip, 0.5 h, mice) was 22.4 mg/kg. The responders at 100 mg/kg in series [1] (Mus musculus, ip, screening, 100 mg/kg i.p., 0.5 h, mice, read-out: 6 Hz (32 mA): number of mice protected/number of mice tested (converted)) is 100%. Moreover, the “mice protected in the 6 Hz (32 mA) test” value in series [1] (screening, 100 mg/kg, time point 0.5 h) is reported as 100%. Besides, the “effect on ATP levels in HepG2 cells” value with HepG2 cells was “no statistically significant effect”.
